The subject of one experiment is Human Platelets. Put plainly: Inhibition of Fibrinogen-Mediated Platelet Aggregation. In kind it is cell-based. To be noted: thrombin-activated human platelets; for Inhibition of Fibrinogen Mediated Platelet Aggregation % inhibition at 25 μM / inhibition at 25 µM: 25 μM compound; for IC50: human fibrinogen added, rate of aggregation. The procedure: II. Inhibition of Fibrinogen--Mediated Platelet Aggregation, which is essentially based on the method described in Blood, Vol. 66, No. 4, Oct. 1985, pp. 846-952, and is as follows.
Human Platelets were isolated from freshly drawn whole blood and were suspended in 0.14 mol/L NaCl, 2.7 mmol/L […], 12 mmol/L NaHCO3, 0.42 mmol/L Na2 HPO4, 0.55 mmol/L glucose, and 5 mmol/L Hepes, pH 7.35 at 2×10^8 platelets/ml. The suspension was incubated at 37° C. An aliquot of 0.4 ml of platelet suspension was activated by human thrombin at a final concentration of 2 μg/ml of thrombin for one minute. After one minute the reaction was stopped by a thrombin inhibitor. Serial dilution of the compound being tested was then added to the activated platelet, the reaction was allowed to proceed for one minute, followed by the addition of human fibrinogen at a final concentration of […] of fibrinogen. Platelet aggregation was then recorded by an aggregometer. Rate of aggregation was used to calculate IC50.

For experiment [1], the target named is T1, fibrinogen binding to thrombin-stimulated platelets (GPIIb/IIIa fibrinogen receptor) (Homo sapiens, UniProt P05106+P08514).
T1 construct: endogenous in cells; host or cells: washed platelets stimulated with human alpha-thrombin
T1 sequence (P08514 32-887 limits assumed): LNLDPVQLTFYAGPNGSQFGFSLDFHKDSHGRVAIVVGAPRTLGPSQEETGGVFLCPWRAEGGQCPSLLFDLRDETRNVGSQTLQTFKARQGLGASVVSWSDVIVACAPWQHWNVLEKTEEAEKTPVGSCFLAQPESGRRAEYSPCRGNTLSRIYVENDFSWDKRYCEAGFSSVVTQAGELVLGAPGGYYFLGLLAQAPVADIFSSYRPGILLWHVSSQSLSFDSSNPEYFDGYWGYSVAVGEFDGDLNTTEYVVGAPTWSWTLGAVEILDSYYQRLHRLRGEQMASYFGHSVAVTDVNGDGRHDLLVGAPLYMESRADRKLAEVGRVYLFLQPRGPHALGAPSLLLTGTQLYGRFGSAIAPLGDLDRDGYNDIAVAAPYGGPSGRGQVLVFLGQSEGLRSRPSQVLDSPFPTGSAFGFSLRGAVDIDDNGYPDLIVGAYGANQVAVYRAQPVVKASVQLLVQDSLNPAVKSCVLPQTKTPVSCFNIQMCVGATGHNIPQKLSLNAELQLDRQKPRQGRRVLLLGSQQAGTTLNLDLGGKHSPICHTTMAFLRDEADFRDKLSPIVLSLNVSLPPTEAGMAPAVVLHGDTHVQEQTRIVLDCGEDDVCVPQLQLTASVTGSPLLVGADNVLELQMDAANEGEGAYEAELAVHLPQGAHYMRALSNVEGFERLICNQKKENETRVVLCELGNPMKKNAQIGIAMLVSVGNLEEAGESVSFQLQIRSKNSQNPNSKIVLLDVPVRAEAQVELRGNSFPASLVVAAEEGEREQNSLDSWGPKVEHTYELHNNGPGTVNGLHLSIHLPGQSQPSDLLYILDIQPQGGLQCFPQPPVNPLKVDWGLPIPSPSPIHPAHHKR
T1 sequence (P08514 891-1039 limits assumed): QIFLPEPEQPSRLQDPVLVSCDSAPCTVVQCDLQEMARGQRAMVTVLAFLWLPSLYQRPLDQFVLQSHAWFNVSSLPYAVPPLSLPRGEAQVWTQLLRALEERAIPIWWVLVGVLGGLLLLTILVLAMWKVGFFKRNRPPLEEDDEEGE
T1 sequence (P05106 27-788): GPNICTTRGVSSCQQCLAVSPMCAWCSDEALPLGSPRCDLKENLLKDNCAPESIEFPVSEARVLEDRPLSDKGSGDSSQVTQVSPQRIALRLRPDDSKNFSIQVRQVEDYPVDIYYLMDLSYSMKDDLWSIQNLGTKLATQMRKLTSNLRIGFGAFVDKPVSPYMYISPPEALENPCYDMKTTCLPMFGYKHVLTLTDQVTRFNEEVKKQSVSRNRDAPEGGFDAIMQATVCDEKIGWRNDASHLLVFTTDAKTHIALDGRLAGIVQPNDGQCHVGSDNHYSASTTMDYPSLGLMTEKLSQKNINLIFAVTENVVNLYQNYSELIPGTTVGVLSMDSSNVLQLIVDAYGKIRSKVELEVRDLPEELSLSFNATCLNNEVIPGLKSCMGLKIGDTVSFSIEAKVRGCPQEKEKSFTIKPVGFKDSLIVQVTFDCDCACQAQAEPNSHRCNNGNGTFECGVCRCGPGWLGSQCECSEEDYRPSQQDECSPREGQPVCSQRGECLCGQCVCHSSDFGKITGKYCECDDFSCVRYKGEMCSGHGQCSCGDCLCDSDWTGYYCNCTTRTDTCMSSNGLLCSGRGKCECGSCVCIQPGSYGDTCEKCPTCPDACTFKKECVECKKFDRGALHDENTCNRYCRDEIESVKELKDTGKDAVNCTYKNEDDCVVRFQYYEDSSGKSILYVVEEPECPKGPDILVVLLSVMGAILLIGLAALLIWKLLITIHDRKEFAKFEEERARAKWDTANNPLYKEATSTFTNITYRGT
Nature of the experiment: Inhibition of Radiolabeled (125I) Fibrinogen Binding Assay. To be noted: read-out: Inhibition of 125I-Fibrinogen (binding to) Platelet IC50. The method, then:
I. Inhibition of Radiolabeled (^125 I) Fibrinogen Binding Assay, which is essentially based on the method described in Proc. Natl. Acad. Sci. USA Vol. 83, pp. 5708-5712, Aug. 1986, and is as follows.
Platelets are washed free of plasma constituents by the albumin density-gradient technique. In each experimental mixture platelets in modified Tyrode's buffer are stimulated with human α-thrombin at 22°-25° C. for 10 minutes (3.125×10" platelets per liter and thrombin at […]). Hirudin is then added at a 25-fold excess for 5 minutes before addition of the radiolabeled ligand and any competing ligand. After these additions, the final platelet count in the mixture is 1×10"/liter. After incubation for an additional 30 minutes at 22°-25° C., bound and free ligand are separated by centrifuging 50 μl of the mixture through 300 μl of 20% sucrose at 12,000 xg for 4 minutes. The platelet pellet is then separated from the rest of the mixture to determine platelet-bound radioactivity. Nonspecific binding is measured in mixtures containing an excess of unlabeled ligand. When binding curves are analyzed by Scatchard analysis, nonspecific binding is derived as a fitted parameter from the binding isotherm by means of a computerized program. To determine the concentration of each inhibitory compound necessary to inhibit 50% of fibrinogen binding to thrombin-stimulated platelets (IC50), each compound is tested at 0.176 μgmol/liter (60 μg/ml). The IC50 is derived by plotting residual fibrinogen binding against the logarithm of the sample compound's concentration.

Setting [2] is: thrombin-stimulated washed platelets, 22-25° C.
[3] abbreviates: no inhibition at concentrations of 50 μM or lower.

Like-named read-outs stand apart in the source and are kept apart here.

Usually IC50 stands for the concentration needed to halve the response being measured. In the case of `CC(C)[C@H](NC(=O)[C@H](CC(=O)O)NC(=O)c1ccc(CCNC(=N)N)cc1)C(=O)O` [4-(2-quanidinoethyl)benzoyl]-L-aspartyl-L-valine], in the experiment on Human Platelets, the “Inhibition of Fibrinogen Mediated Platelet Aggregation % inhibition at 25 μM” value is 85.0% and half-maximal inhibition (IC50) required 7.7 µM. For the same compound, the IC50 in experiment [1] (setting [2]) was determined as 10.9 µM.
A word on the inhibition: it is the percentage by which the read-out fell short of the control. Low values mean a weak effect, high ones a strong effect. Compound `CC(C)[C@H](NC(=O)[C@H](CC(=O)O)NC(=O)c1cccc(CCCNC(=N)N)c1)C(=O)O` [3-(3-Guanidinopropyl)benzoyl-L-aspartyl-L-valine] displayed an inhibition at 25 µM in the experiment with Human Platelets (Platelet) of 52%. The 50% inhibitory concentration (IC50) in experiment [1] (setting [3]) was at least 50 µM.
`CC(C)[C@H](NC(=O)[C@H](CC(=O)O)NC(=O)Cc1ccc(NC(=N)N)cc1)C(=O)O` [N-(4-guanidinophenylacetoyl)-L-aspartyl-L-valine] gave an inhibition at 25 µM in the experiment on Human Platelets (Platelet) of 43%. The IC50 in experiment [1] (setting [2]) amounted to 20 µM.
In the experiment with Human Platelets (Platelet), `CC(C)[C@H](NC(=O)[C@H](CC(=O)O)NC(=O)CCc1ccc(NC(=N)N)cc1)C(=O)O` [3-(4-guanidinophenyl)propanoyl-L-aspartyl-L-valine] came in with an inhibition at 25 µM of 65% and a concentration for half-maximal inhibition (IC50) of 14 µM. For the same compound, in experiment [1] (setting [2]), the IC50 was 4.5 µM.
In the experiment with Human Platelets (Platelet), `CC(C)[C@H](NC(=O)[C@H](CC(=O)O)NC(=O)c1cccc(CNC(=N)N)c1)C(=O)O` [N-(3-guanidinomethylbenzoyl)-L-aspartyl-L-valine] returned an inhibition at 25 µM of 53% and an IC50 of 30.2 µM. In addition, in experiment [1] (setting [3]), the half-maximal inhibitory concentration (IC50) is at least 50 µM.
In the experiment with Human Platelets (Platelet), `CC(C)[C@H](NC(=O)[C@H](CC(=O)O)NC(=O)c1ccc(CCCNC(=N)N)cc1)C(=O)O` [4-(3-Guanidinopropyl)benzoyl-L-aspartyl-L-valine] showed an inhibition at 25 µM of 83.3% and an IC50 of 7.6 µM.
With `CC(C)[C@H](NC(=O)[C@H](CC(=O)O)NC(=O)c1cccc(CCNC(=N)N)c1)C(=O)O` [N-[3-(2-guanidinoethyl)benzoyl]-L-aspartyl-L-valine], in the experiment with Human Platelets (Platelet), at 25 µM the inhibition was 37% and the IC50 was determined as 33.1 µM. Moreover, the IC50 in experiment [1] (setting [2]) is 115 µM.
Turning to `CC(C)[C@H](NC(=O)[C@H](CC(=O)O)NC(=O)c1ccc(CNC(=N)N)cc1)C(=O)O` [N-(4-guanidinomethylbenzoyl)-L-aspartyl-L-valine], in the experiment on Human Platelets (Platelet), the inhibition at 25 µM was 16%. Further, the half-inhibitory concentration (IC50) in experiment [1] (setting [2]) turned out to be 22 µM.
On to `CC(C)[C@H](NC(=O)[C@H](CC(=O)O)NC(=O)Cc1ccc(CNC(=N)N)cc1)C(=O)O` [4-Guanidinomethyl phenylacetoyl-L-aspartyl-L-valine], for which, in the experiment on Human Platelets (Platelet), 25 µM produced 42% inhibition. Besides, the half-inhibitory concentration (IC50) in experiment [1] (setting [3]) is at least 50 µM.
In turn, `CC(C)[C@H](NC(=O)[C@H](CC(=O)O)NC(=O)C=Cc1ccc(NC(=N)N)cc1)C(=O)O` [4-Guanidino cinnamoyl-L-aspartyl-L-valine] showed an inhibition at 25 µM in the experiment with Human Platelets (Platelet) of 25%. For the same compound, the half-maximal inhibitory concentration (IC50) is 2.8 µM in the experiment on Human Platelets (Platelet) and 0.25 µM in experiment [1] (setting [2]).
Regarding `CC(C)[C@H](NC(=O)[C@H](CC(=O)O)NC(=O)c1cccc(NC(=N)N)c1)C(=O)O` [3-Guanidinobenzoyl-L-aspartyl-L-valine, N-(3-guanidinobenzoyl)-L-aspartyl-L-valine], the inhibition at 25 µM with Human Platelets (Platelet) stood at 6.3%. In addition, the IC50 in experiment [1] (setting [3]) was at least 50 µM.
As for `CC(C)[C@H](NC(=O)[C@H](CC(=O)O)NC(=O)c1ccc(NC(=N)N)cc1)C(=O)O` [4-Guanidinobenzoyl-L-aspartyl-L-valine, N-(4-quanidinobenzoyl)-L-aspartyl-L-valine], in the experiment with Human Platelets, the “Inhibition of Fibrinogen Mediated Platelet Aggregation % inhibition at 25 μM” value was determined as 33.0%.
In the case of `CC(C)[C@H](NC(=O)[C@H](CC(=O)O)NC(=O)Cc1cccc(CNC(=N)N)c1)C(=O)O` [3-Guanidinomethylphenylacetoyl-L-aspartyl-L-valine], the inhibition at 25 µM with Human Platelets (Platelet) was found to be 15.2%.

Source of the values: patent US5086069A, “Anti-thrombotic peptide and pseudopeptide derivatives” (Rorer Pharmaceutical Corporation, priority 1990, dated 1992).
